The values that follow come from patent US20230002359A1, “PESTICIDALLY ACTIVE FUSED BICYCLIC HETEROAROMATIC COMPOUNDS” (priority 2019, published 2023).

For data set [1], the system named is Plutella xylostella (Diamondback Moth). In words: Example B9: Plutella xylostella (diamondback moth), artificial diet, eggs, 96-well. The data set is classed as in vivo. Conditions: 216 h, application rate of 500 ppm, 9 days after infestation, read-out: control in mortality. The protocol: 96-well microtiter plates containing artificial diet were treated with aqueous test solutions, prepared from 10′000 ppm DMSO stock solutions, by a liquid handling robot. After drying, eggs (˜30 per well) were infested onto a netted lid which was suspended above the diet. The eggs hatch and L1 larvae move down to the diet. The samples were assessed for mortality 9 days after infestation.

The subject of data set [2] is Spodoptera littoralis (Egyptian Cotton Leaf Worm). The data set can be described thus: Example B7: Spodoptera littoralis (Egyptian cotton leaf worm), cotton leaf discs sprayed, L1 larvae. The data set is classed as in vivo. Conditions: foliar, 72 h, application rate of 200 ppm, 3 days after infestation, L1 larvae, read-out: control in at least one of the three categories (mortality, anti-feedant effect, or growth inhibition). In outline:
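Leaf discs on agar sprayed with aqueous dilutions of 10′000 ppm DMSO stocks, dried, then infested with five L1 larvae. Mortality, anti-feeding and growth inhibition scored versus untreated 3 days after infestation; control given when any category exceeds untreated.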

The test system of data set [3] is Chilo suppressalis (Striped Rice Stemborer). The data set can be described thus: Example B3: Chilo suppressalis (striped rice stemborer), artificial diet, L2 larvae. Conditions: 144 h, application rate of 200 ppm, 6 days after infestation, L2 larvae, read-out: control in at least one of the three categories (mortality, anti-feedant effect, or growth inhibition). The data set is classed as in vivo. In short, it runs like this:
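Scoring covers mortality, anti-feedant effect and growth inhibition at 6 days post-infestation, relative to untreated diet, with activity defined as at least one category above untreated. Test solutions were aqueous, made from 10'000 ppm DMSO stocks, and applied to artificial diet before drying and infestation with L2 larvae.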

In data set [4] the test system is Plutella xylostella (Diamond Back Moth). In words: Example B4: Plutella xylostella (diamond back moth), artificial diet, eggs, 24-well. Conditions: 192 h, application rate of 200 ppm, 8 days after infestation, eggs, read-out: control in at least one of the two categories (mortality or growth inhibition). In kind it is in vivo. The protocol:
24-well microtiter plates with artificial diet were treated with aqueous test solutions prepared from 10′000 ppm DMSO stock solutions by pipetting. After drying, Plutella eggs were pipetted through a plastic stencil onto a gel blotting paper and the plate was closed with it. The samples were assessed for mortality and growth inhibition in comparison to untreated samples 8 days after infestation.

Data set [5] has as its system Diabrotica Balteata (Corn Root Worm). In words: Example B1: Diabrotica balteata (corn root worm), maize sprouts sprayed, L2 larvae. In kind it is in vivo. Conditions: 96 h, application rate of 200 ppm, 4 days after infestation, L2 larvae, read-out: control in at least one of the two categories (mortality or growth inhibition). In short, it runs like this:
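Read-out is mortality plus growth inhibition relative to untreated controls, assessed 4 days after infestation. Sprouts resting on agar are sprayed with aqueous solutions derived from 10′000 ppm DMSO stocks and left to dry before L2 larvae (6 to 10 per well) are added.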

For data set [6], the system named is Myzus persicae (Green Peach Aphid). The data set can be described thus: Example B6: Myzus persicae (green peach aphid) intrinsic activity, sucrose solution. Conditions: 120 h, test rate of 12 ppm, 5 days after infestation, intrinsic activity, read-out: mortality. The data set is classed as in vivo. In short, it runs like this: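 Compounds from 10′000 ppm DMSO stocks were mixed into sucrose solution in 24-well plates sealed with Parafilm. Aphid-infested pea seedlings were set on the membrane and the plate inverted so aphids fed through it. Mortality scored 5 days after infestation.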

Consider `CC(Nc1ncnc2c(Cl)nccc12)c1nccnc1-n1nccn1` (stereo not shown) [P.277, 8-chloro-N-[1-[3-(triazol-2-yl)pyrazin-2-yl]ethyl]pyrido[3,4-d]pyrimidin-4-amine], for which, in data set [1], the mortality at 500 ppm was not below 80%.
For the compound `CC(Nc1ccnc2c(Cl)cc(Cl)cc12)c1ncnn1-c1ncccn1` (stereo not shown) [P.67, 6,8-dichloro-N-[1-(2-pyrimidin-2-yl-1,2,4-triazol-3-yl)ethyl]quinolin-4-amine], the percent control (mortality, anti-feedant effect or growth inhibition) at 200 ppm in data set [2] and in data set [3] was not below 80% each time. The percent control (mortality or growth inhibition) at 200 ppm in data set [4] and in data set [5] was not below 80% each time. The mortality at 500 ppm in data set [1] is not below 80%.
Regarding `C[C@@H](c1ncnn1-c1ccc(C(N)=NO)cn1)N(C)c1ncnc2c(C(F)(F)F)cc(Cl)cc12`, the melting point was in the range of 223 to 225 °C.
As to `CC(Nc1ncnc2ccc(C(F)(F)F)cc12)c1ncnn1-c1ccc(C#N)cn1` (stereo not shown) [P.64, 6-[5-[1-[[6-(trifluoromethyl)quinazolin-4-yl]amino]ethyl]-1,2,4-triazol-1-yl]pyridine-3-carbonitrile], the percent control (mortality, anti-feedant effect or growth inhibition) at 200 ppm in data set [2] and in data set [3] was not below 80% in each case. In addition, the percent control (mortality or growth inhibition) at 200 ppm in data set [4] and in data set [5] was not below 80% in each case. Further, the mortality at 500 ppm in data set [1] is not below 80%.
As for `CC(Nc1ncnc2c(Cl)cc(Cl)cc12)c1ncnn1-c1ncccn1` (stereo not shown) [P.68, 6,8-dichloro-N-[1-(2-pyrimidin-2-yl-1,2,4-triazol-3-yl)ethyl]quinazolin-4-amine], the percent control (mortality, anti-feedant effect or growth inhibition) at 200 ppm in data set [2] and in data set [3] was not below 80% throughout. Further, the percent control (mortality or growth inhibition) at 200 ppm in data set [4] and in data set [5] was not below 80% in each case. Further, in data set [1], the mortality at 500 ppm was not below 80%.
`CC(Nc1ncnc2c(C(F)(F)F)cc(C(F)(F)F)cc12)c1ncnn1-c1ccc(C#N)cn1` (stereo not shown) [P.61, 6-[5-[1-[[6,8-bis(trifluoromethyl)quina-zolin-4-yl]amino]ethyl]-1,2,4-triazol-1-yl]pyridine-3-carbonitrile]: the percent control (mortality, anti-feedant effect or growth inhibition) at 200 ppm in data set [2] and in data set [3] was not below 80% throughout. Moreover, the percent control (mortality or growth inhibition) at 200 ppm in data set [4] was not below 80%. The mortality at 500 ppm in data set [1] was not below 80%.
With `C[C@H](Nc1c(C#N)cnc2c(C(F)(F)F)cc(C(F)(F)F)cc12)c1ncnn1-c1ccc(C#N)cn1`, the melting point was in the range of 204 to 206 °C.
With `CC(c1ncnn1-c1ccc(C#N)cn1)N(C)c1ncnc2c(Cl)c(F)c(Cl)cc12` (stereo not shown), the melting point is 145 to 155 °C.
As for `C[C@@H](c1ncnn1-c1ccc(-c2ncon2)cn1)N(C)c1ncnc2c(C(F)(F)F)cc(Cl)cc12`, the melting point was in the range of 144 to 146 °C.
In turn, `C[C@@H](c1ncnn1-c1ncccn1)N(C)c1ncnc2c(C(F)(F)F)cc(C3CC3)cc12` displayed a melting point of 182 to 184 °C.
For `C[C@@H](c1ncnn1-c1ccc(-c2noc(C(F)(F)F)n2)cn1)N(C)c1ncnc2c(C(F)(F)F)cc(Cl)cc12`, the melting point lay within 75 to 77 °C.
As to `CC(Nc1ncnc2c(Cl)cc(C(F)(F)F)cc12)c1ncnn1-c1ccc(OC(F)F)cn1` (stereo not shown), the melting point is 240 to 242 °C.
As for `C[C@@H](c1ncnn1-c1ccc(C(N)=O)cn1)N(C)c1ncnc2c(C(F)(F)F)cc(C(F)(F)F)cc12`, the melting point fell in the range of 183 to 185 °C.
`CC(Nc1ncnc2c(Cl)c(F)c(Cl)cc12)c1ncnn1-c1ccc(C#N)cn1` (stereo not shown) came in with a melting point of 215 to 225 °C.
Compound `C[C@@H](c1ncnn1-c1ncccn1)N(C)c1c(C#N)cnc2c(C(F)(F)F)cc(C(F)(F)F)cc12` came in with a melting point of 84 to 86 °C.
Take `CC(Nc1c(C#N)cnc2c(C(F)(F)F)cc(C(F)(F)F)cc12)c1ncnn1-c1ccc(C#N)cn1` (stereo not shown): the melting point was in the range of 261 to 263 °C.
For the compound `CC(Nc1ncnc2c(Cl)cc(Cl)cc12)c1ncnn1-c1ccc(C#N)cn1` (stereo not shown) [P.65, 6-[5-[1-[(6,8-dichloroquinazolin-4-yl)amio]ethyl]-1,2,4-triazol-1-yl]pyridine-3-carbonitrile], in data set [3], the percent control (mortality, anti-feedant effect or growth inhibition) at 200 ppm is not below 80%. Further, the percent control (mortality or growth inhibition) at 200 ppm in data set [4] was not below 80%. Also, the mortality at 500 ppm in data set [1] was not below 80%.
As to `C[C@H](Nc1c(C#N)cnc2c(C(F)(F)F)cc(C(F)(F)F)cc12)c1ncnn1-c1ncccn1`, the melting point was in the range of 203 to 205 °C.
The same measure, in the same setting: under `CC(c1ncnn1-c1ncccn1)N(CC1CC1)c1nc(Cl)nc2c(Cl)cc(C(F)(F)F)cc12` (stereo not shown) stands 81 to 83 °C.
`Cc1nc(NC(C)c2ncnn2-c2ccc(C#N)cn2)c2cc(C(F)(F)F)cc(C(F)(F)F)c2n1` (stereo not shown) [P.60, 6-[5-[1-[[2-methyl-6,8-bis(trifluoromethyl)quinazolin-4-yl]amino]ethyl]-1,2,4-triazol-1-yl]pyridine-3-carbonitrile]: the percent control (mortality, anti-feedant effect or growth inhibition) at 200 ppm in data set [3] was not below 80%. For the same compound, in data set [4], the percent control (mortality or growth inhibition) at 200 ppm is not below 80%. The mortality at 500 ppm in data set [1] was not below 80%.
Take `CC(c1ncnn1-c1ncccn1)N(C)c1ncnc2c(Cl)cc(Cl)cc12` (stereo not shown) [P.66, 6,8-dichloro-N-methyl-N-[1-(2-pyrimidin-2-yl-1,2,4-triazol-3-yl)ethyl]quianzolin-4-amine]: in data set [3], the percent control (mortality, anti-feedant effect or growth inhibition) at 200 ppm is not below 80%. Besides, the percent control (mortality or growth inhibition) at 200 ppm in data set [4] and in data set [5] was not below 80% in each case. In data set [1], the mortality at 500 ppm was not below 80%. In data set [6], the mortality at 12 ppm was not below 80%.
In turn, `CC(c1ncnn1-c1ccc(OC(F)F)cn1)N(C)c1ncnc2c(Cl)cc(C(F)(F)F)cc12` (stereo not shown) had a melting point of 102 to 104 °C.
As for `CC(Nc1nccc2c(C(F)(F)F)cccc12)c1ncnn1-c1ccccn1` (stereo not shown) [P.69, N-[1-[2-(2-pyridyl)-1,2,4-triazol-3-yl]ethyl]-5-(trifluoromethyl)isoquino-lin-1-amine], in data set [1], the mortality at 500 ppm was not below 80%.
As for `C[C@@H](c1ncnn1-c1ccc(-c2nnn[nH]2)cn1)N(C)c1ncnc2c(C(F)(F)F)cc(Cl)cc12`, the melting point fell in the range of 77 to 79 °C.
Compound `CC(Nc1ncnc2c(C(F)(F)F)cc(Br)cc12)c1ncnn1-c1ccc(Br)cn1` (stereo not shown) showed a melting point of 214 to 216 °C.
Regarding `CC(c1nccnc1-c1ccc(Br)cn1)N(C)c1ncnc2c(Cl)cc(C(F)(F)F)cc12` (stereo not shown), the melting point was in the range of 142 to 144 °C.
Take `CC(c1ncnn1-c1ncccn1)N(CC1CC1)c1nc(Cl)nc2c(Br)cc(C(F)(F)F)cc12` (stereo not shown): the melting point lay within 87 to 89 °C.
Turning to `CC(Nc1ncnc2c(C(F)(F)F)cc(Br)cc12)c1ncnn1-c1ccc(C#N)cn1` (stereo not shown) [P.63, 6-[5-[1-[[6-bromo-8-(trifluoromethyl)quinazolin-4-yl]amino]ethyl]-1,2,4-triazol-1-yl]pyridine-3-carbonitrile], the percent control (mortality, anti-feedant effect or growth inhibition) at 200 ppm in data set [2] and in data set [3] was not below 80% in each case. In data set [4], the percent control (mortality or growth inhibition) at 200 ppm was not below 80%. Further, in data set [1], the mortality at 500 ppm is not below 80%.
In turn, `CC(Nc1ncnc2c(Cl)cc(C(F)(F)F)cc12)c1nccnc1-c1ccc(Br)cn1` (stereo not shown) returned a melting point of 230 to 232 °C.
Compound `CC(Nc1ncnc2c(C(F)(F)F)cc(Br)cc12)c1ncnn1-c1ccc(F)cn1` (stereo not shown) had a melting point of 282 to 284 °C.
Compound `CC(Nc1ncnc2c(Br)cc(C(F)(F)F)cc12)c1ncnn1-c1ccc(Br)cn1` (stereo not shown) yielded a melting point of 280 to 282 °C.
The compound `CC(Nc1ncnc2c(C(F)(F)F)cc(Cl)cc12)c1ncnn1-c1ccc(Br)cn1` (stereo not shown) yielded a melting point of 274 to 276 °C.
Take `CC(Nc1ncnc2c(C(F)(F)F)cccc12)c1ncnn1-c1ccc(C#N)cn1` (stereo not shown) [P.62, 6-[5-[1-[[8-(trifluoromethyl)quinazolin-4-yl]amino]ethyl]-1,2,4-triazol-1-yl]pyridine-3-carbonitrile]: the percent control (mortality, anti-feedant effect or growth inhibition) at 200 ppm in data set [3] was not below 80%. For the same compound, the percent control (mortality or growth inhibition) at 200 ppm in data set [4] is not below 80%. Moreover, the mortality at 500 ppm in data set [1] was not below 80%.
